# Data reported in patent publication US10610506B2 (UCL Business PLC, priority 2004, dated 2020).
# Entries after “also recorded” stand apart in the source; their conditions may differ.
# Columns and labels:
# patients with cirrhosis = test: LOLA infusion in cirrhosis with HE: ammonia and glutamine; type: in vivo, human
# Excerpt: (§1) Blood was sampled for the measurement of ammonia and glutamine.
# [1] = system: patients with advanced cirrhosis; test: Aspartate accumulation during L-ornithine L-aspartate treatment; type: in vivo, human
# [2] = system: patients with HE grade 3 undergoing heamofiltration; test: LOLA infusion in patients undergoing heamofiltration (CVVH); type: in vivo, human
# Excerpt: as §1
# [3] = system: patients with biopsy-proven cirrhosis of the liver; test: Simulated bleed with isoleucine supplementation: protein kinetics (Phe model) and ammonia; type: in vivo, human; details: for Net Balance / Protein breakdown / Protein synthesis: mean ± SEM
# Experimental: Sixteen metabolically stable patients with biopsy-proven cirrhosis of the liver were studied. Patients were randomized either to supplementation with isoleucine (40 mg/L solution; 50 ml/hr) or placebo during a simulated bleed over a 4-hour period. Protein synthesis (measured using primed continuous infusion of L-[ring-^2H5]phenylalanine), L-[ring-^2H4]tyrosine and L[ring-^2H2]tyrosine) and ammonia.
# [4] = system: patients with biopsy proven cirrhosis of the liver; test: Simulated gastrointestinal bleed in cirrhotic patients, neutrophil chemotaxis with isoleucine infusion; type: in vivo, human; details: after simulated bleed (75 g amino acid mixture), isoleucine iv over 2 hours
# Excerpt: Ten overnight fasted, metabolically stable patients with biopsy proven cirrhosis of the liver [9 males and 1 female; mean 49.6 years (SEM 9.1); mean Child-Pugh score of 7.8 (SEM 1.2)] were studied prior to and two hours after an oral administration of 75 grams of an amino acid mixture that mimics the hemoglobin molecule (Nutricia, Cuijk, Netherlands). In seven other patients [4 male and 3 female; mean 51.4 years (SEM 6.7); mean Child-Pugh score of 8.1 (SEM 1.4)], following administration of the amino acid mixture, isoleucine was administered intravenously over a 2 hour period (iso-osmotic solution containing 40 mg/l of isoleucine at a rate of 100 ml/hr). Neutrophil chemotaxis (see Example 1 for method) and plasma ammonia were measured in peripheral venous blood samples.
# [5] = system: patients with cirrhosis admitted for management of variceal bleeding; test: Open labelled study of isoleucine and OIP after variceal bleeding; type: in vivo, human
# Experimental: • 1. Groups—2 patients per group. Total 6 • 2. Inclusion criteria • Adult patients aged 18-80 years, liver cirrhosis documented by histology or clinical criteria, Child B or C, recent Gastrointestinal bleed from varices (<6 hours after presentation), informed consent/assent. • 3. Exclusion criteria • other concomitant neurological disorder, use of another specific ammonia lowering drug, respiratory failure requiring mechanical ventilation and sedation, uncontrolled gastrointestinal bleeding, hypotension requiring inotropes, overt renal failure (creatinine >2 nag/dl), hemodialysis, extracorporeal liver support, known hypersensitivity to any of the study drugs, pregnancy/lactation. Methods
# In an open labelled study, we included 6 patients with cirrhosis and who were admitted for management of variceal bleeding. They were matched for the severity of liver disease (see Table 4). They were treated with one of the following regimes for a 3 day period and observations were made for 5 days. The study groups were:
# i. Placebo: 5% Dextrose over 4 hours (250 ml)
# ii. Isoleucine alone: 10 gm IV in 250 ml 5% Dextrose over 2 hours in two divided doses.
# Patients were fasted overnight between 0000 midnight and 0800 am. They were fed intragastrically with a diet of 25 KCal/Kg that included 1 g/Kg protein diet starting at 0800 and finishing at midnight. Blood was sampled at 0730 am and then at 1800 hr for the measurement of ammonia and glutamine. Patients were monitored closely for side effects. The drug was tolerated well in each of the groups and no adverse events were observed. Because the patients received sedation for their initial endoscopy, the mental state assessment was impossible to interpret. One patient each in the Placebo and the Isoelucine groups died from multiorgan failure in the hospital. The rest of the patients survived.
# neutrophils [6] = details: blood incubated 1 hour with increasing concentrations of ammonia; 10 ng/ml IL-8 (FIG. 3)
# Experimental: Neutrophil Chemotaxis: Neutrophil chemotaxis was measured using a modified Boyden chamber method using interleukin-8 as chemo-attractant to stimulate chemokinesis.
# (§2) Blood was collected from healthy volunteers (n=15) and incubated for 1 hour with increasing concentrations of ammonia. The ability of the neutrophils to phagocytose bacteria was measured using the Phagotest and Neutrophil chemotaxis assays. 10 ng/ml IL-8 was used in the Neutrophil chemotaxis assay.
# neutrophils [7] = test: Phagotest neutrophil phagocytosis, blood incubated with ammonia and amino acids; type: cell-based, human
# Experimental: Methods for Measurement of Neutrophil Phagocytosis and oxidative burst Phagotest: Heparinised whole blood was incubated with opsonised FITC-labelled E coil and CD16. The cells were then analysed by flow cytometry (FACScan Becton Dickinson), gated through forward and side scatter and subsequently assessed on the basis of R-phycoerythrin (PE) [Immunotech, Marseille, France] flurochrome expression to identify CD16 positive cells. The gated population was then assessed for the presence of FITC-labelled bacteria.
# as §2
# Blood was collected from healthy volunteers (n=15) and incubated for 1 hour with ammonia and selected amino acids. The ability of the neutrophils to phagocytose bacteria was measured using the Phagotest assay.
# [8] = system: patients with cirrhosis and hyperammonemia; test: Open labelled study of ornithine, phenylbutyrate and OP in hepatic encephalopathy; type: in vivo, human; details: for mean ammonia levels: over the period of treatment (FIG. 11); for mean glutamine levels: over the period of treatment (FIG. 12)
# Excerpt: • 1. Groups-3 patients per group. Total 12. • 2. Inclusion criteria • adult patients aged 18-80 years, —liver cirrhosis documented by histology or clinical criteria • HE type C, ammonia concentration of >80 umol/L, informed consent/assent • 3. Exclusion criteria • other concomitant neurological disorder, —use of another specific ammonia lowering drug, —respiratory failure requiring mechanical ventilation and sedation, —uncontrolled gastrointestinal bleeding, —hypotension requiring inotropes, overt renal failure (creatinine >2 mg/dl), hemodialysis, —extracorporeal liver support, known hypersensitivity to any of the study drugs, —pregnancy. Assessment of Mental State
# In an open labelled study, we included 8 patients with cirrhosis and hyperammonemia. They were matched for the severity of liver disease (see Table 3). They were treated with one of the following regimes for a 3 day period and observations were made for 5 days. The study groups were:
# (i) Placebo: 5% Dextrose over 4 hours;
# (iii) Phenylbutyrate: 10 g twice daily, orally (0800 and 1600); and
# Patients were fasted overnight between 0000 midnight and 0800 am. They were fed intragastrically with a diet of 25 KCal/Kg that included 1 g/Kg protein diet starting at 0800 and finishing at midnight. Blood was sampled at 0730 am and then at 1800 hr for the measurement of ammonia and glutamine. Patients were monitored closely for side effects.
# [9] = system: devascularized pig model of acute liver failure; test: Devascularized pig model of acute liver failure; type: in vivo, pigs; details: for muscle ammonia uptake/production (femoral vein-artery): FIG. 23
# Experimental: Pigs had catheters inserted into the femoral artery and vein, portal vein, renal vein and pulmonary artery. The experiment started at time=−1 hr, when placebo or treatment infusions were started.
# 1. Placebo: 5% Dextrose over 3 hours, oral water placebo
# At the end of the experiment a section of frontal cortex was removed for brain water measurements.
# BDL cirrhotic rats = test: Bile duct ligated rat model, IP ornithine, phenylbutyrate, OP; type: in vivo, Sprague-Dawley rats
# Experimental: Male Sprague-Dawley rats (200-250 g) were used for this procedure. Following anaesthetisation, a mid-line laparotamy was performed, the bile duct was exposed, triply ligated with 4.0 silk suture, and severed between the second and third ligature. The wound was closed in layers with absorbable suture, and the animal allowed to recover in a quiet room before being returned to the animal storage facility. Animals were kept at a constant temperature (20° C.) in a 12 hour light/dark cycle with access to water and standard rodent chow ad libitum. […] At six weeks, under anaesthesia a right carotid arterial catheter was inserted and used to collect repeated blood samples. Following this procedure a baseline sample was collected prior to administration of the study formulations by IP injection. […] Blood samples were collected into pre-cooled […] tubes and stored on ice prior to processing. Plasma was collected following centrifugation (3,000 rpm, 10 mins) and stored at -80° C. prior to analyses. Ammonia, glucose, lactate and urea were measured using a COBRAS Mira S according to manufacturers instructions. Amino acids were quantified by HPLC with fluorescence detection.
# [10] = LOLA 40 g over 8 hours (FIG. 8)
compound,measurement,setting,value
L-ornithine L-aspartate [LOLA],severity of HE,patients with cirrhosis; LOLA 40 g over 8 hours,beneficial effects
same,ammonia concentration,patients with cirrhosis; [10],significant reduction
same,glutamine concentration,patients with cirrhosis; [10],concomitant rise
same,recurrence of HE,patients with cirrhosis; after LOLA was stopped,3 of the 6
same,circulating ammonia levels when LOLA was stopped,patients with cirrhosis; after stopping infusion,rebound increase
same,ASPARTATE concentration,"[1]; Day 1, 40 g/day",178 µmol/L
same,ASPARTATE concentration,"[1]; Day 2, 40 g/day",289 µmol/L
same,ASPARTATE concentration,"[1]; Day 3, 40 g/day",354 µmol/L
same,ASPARTATE concentration,"[1]; PRE, 40 g/day L-ornithine L-aspartate",72 µmol/L
same,increase in the aspartate concentration,[1]; over a 3 day period,5 times the basal value
same,ammonia concentration,[2]; LOLA 40 g over 8 hours with CVVH (FIG. 9),reduction
same,glutamine concentration,[2]; LOLA with addition of dialysis (FIG. 9),prevented the concomitant increase
CC[C@H](C)[C@H](N)C(=O)O [isoleucine],Net Balance,"[3]; Leg, End",261 ± 102 nmol/kg body cell mass/min
same,Protein breakdown,"[3]; Leg, End",159 ± 100 nmol/kg body cell mass/min
same,Protein synthesis,"[3]; Leg, End",377 ± 135 nmol/kg body cell mass/min
same,Net Balance,"[3]; Leg, t = 0 hours",−185 ± 152 nmol/kg body cell mass/min
same,Protein breakdown,"[3]; Leg, t = 0 hours",196 ± 61 nmol/kg body cell mass/min
same,Protein synthesis,"[3]; Leg, t = 0 hours",−31 ± 201 nmol/kg body cell mass/min
same,Protein synthesis,"[3]; Liver, End (final hour of amino acid infusion)",839 ± 221 nmol/kg body cell mass/min
same,Net Balance,"[3]; Liver, End",682 ± 165 nmol/kg body cell mass/min
same,Protein breakdown,"[3]; Liver, End",157 ± 204 nmol/kg body cell mass/min
same,Net Balance,"[3]; Liver, t = 0 hours",98 ± 33 nmol/kg body cell mass/min
same,Protein breakdown,"[3]; Liver, t = 0 hours",109 ± 25 nmol/kg body cell mass/min
same,Protein synthesis,"[3]; Liver, t = 0 hours",218 ± 37 nmol/kg body cell mass/min
same,protein synthesis of liver and muscle,[3]; isoleucine infusion during simulated bleed,restores impaired protein synthesis
same,"ammonia concentration, isoleucine versus placebo",[3]; simulated bleed over 4 hours (FIG. 7),not significantly different
same,neutrophil chemotaxis,[4],25.4 (±6.0) cells/high power field
same,patients died from multiorgan failure in the hospital,[5]; 2 patients per group,One
same,ammonia concentrations,[5]; FIG. 14,no significant changes
same,glutamine levels,[5]; FIG. 15,not significantly altered
same,Dead/Alive,"[5]; individual patients P3-P6, listed as Isoleucine alone",P3: A; also recorded: P4: D
N [ammonia],neutrophil chemotaxis,neutrophils [6],significant reduction
same,neutrophil phagocytosis,neutrophils [7]; blood of healthy volunteers incubated 1 hour with increasing concentrations of ammonia (FIG. 2),significant reduction
NCCC[C@H](N)C(=O)O [ornithine],Ornithine levels,"[5]; over the course of OIP treatment, reduced to basal values on stopping the drug (FIG. 18)",marked sustained increase
same,mean ammonia levels,[8],increased from baseline values
same,mean glutamine levels,[8],increase
same,arterial ornithine levels,[9]; FIG. 27,increase
NC(=O)CC[C@H](N)C(=O)O [glutamine],ammonia-induced reduction in neutrophil phagocytosis,neutrophils [7]; blood incubated 1 hour with ammonia and selected amino acid (FIG. 4),partially reversed
phenylbutyrate,plasma ammonia,"BDL cirrhotic rats; after 1 hour, p<0.01 vs all other groups",significant increase
same,plasma ammonia,BDL cirrhotic rats; three hour time point / end of the study,difference was found to be smaller
same,Dead/Alive,"[8]; individual patients P3-P8, listed as Phenylbutyrate alone",P5: A; also recorded: P6: A
same,mean ammonia levels,[8],increased from baseline values
same,mean glutamine levels,[8],reduction
same,arterial ammonia,"[9]; 0.3 g/Kg each over 3 hours, to experiment termination (FIG. 22), listed as Phenylbutyrate alone","initial blunting of arterial ammonia levels, which quickly rises to levels comparable with ornithine alone at experiment termination; also recorded: insignificant effects"
same,muscle ammonia uptake/production (femoral vein-artery),[9]; listed as P alone,increase in ammonia production by the muscle
same,muscle ammonia uptake/production (femoral vein-artery),[9]; listed as Phenylbutyrate alone,little change
same,gut ammonia production (portal drained viscera-artery),[9]; FIG. 24,appreciable
same,muscle glutamine release,"[9]; FIG. 25, listed as Phenylbutyrate alone",net removal
same,gut glutamine uptake,[9]; FIG. 26,little overt effect
same,arterial glutamine levels,[9]; FIG. 28,marginally increases
